According to ChEMBL document CHEMBL1131045, “Indole-2-carboxamide inhibitors of human liver glycogen phosphorylase” (J Med Chem, 1998):
“And” between values parts separate entries of the source, which are not always exact repeats. Identical values can stand only once.

Columns and labels:
[1] = biological target: T1, Glycogen phosphorylase, liver form (Homo sapiens, UniProt P06737); test: In vitro inhibitory activity against recombinant human liver glycogen phosphorylase a (rHLGPa) catalyzed release of phosphate from glucose-1-phosphate.
T1 sequence (P06737 whole entry): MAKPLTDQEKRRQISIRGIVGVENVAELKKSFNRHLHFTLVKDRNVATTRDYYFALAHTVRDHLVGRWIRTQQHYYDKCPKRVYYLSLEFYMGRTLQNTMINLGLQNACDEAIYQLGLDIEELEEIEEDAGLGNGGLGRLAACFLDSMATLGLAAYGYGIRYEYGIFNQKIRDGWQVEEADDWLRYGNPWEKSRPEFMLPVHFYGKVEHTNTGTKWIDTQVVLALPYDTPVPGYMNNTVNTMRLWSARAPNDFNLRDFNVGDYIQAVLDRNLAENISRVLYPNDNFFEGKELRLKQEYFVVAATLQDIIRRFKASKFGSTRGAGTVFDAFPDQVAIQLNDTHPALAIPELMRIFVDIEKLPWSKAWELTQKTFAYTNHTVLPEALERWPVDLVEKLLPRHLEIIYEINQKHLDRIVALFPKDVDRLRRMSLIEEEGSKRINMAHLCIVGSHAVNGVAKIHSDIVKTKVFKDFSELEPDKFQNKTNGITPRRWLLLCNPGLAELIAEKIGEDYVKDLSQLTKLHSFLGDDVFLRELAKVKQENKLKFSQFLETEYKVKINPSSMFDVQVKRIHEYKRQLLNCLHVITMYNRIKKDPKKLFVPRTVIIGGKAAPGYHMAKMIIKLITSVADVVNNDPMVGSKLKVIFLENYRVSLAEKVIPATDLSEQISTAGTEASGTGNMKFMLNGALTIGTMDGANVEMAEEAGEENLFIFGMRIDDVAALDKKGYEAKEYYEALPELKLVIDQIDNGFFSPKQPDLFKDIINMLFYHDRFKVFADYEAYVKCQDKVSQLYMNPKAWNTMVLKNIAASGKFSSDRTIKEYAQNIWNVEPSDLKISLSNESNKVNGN

[2] = Inhibition of forskolin-stimulated glycogenolysis in SK-HEP-1 cells; assay type: functional, cell-based; details: Homo sapiens, SK-HEP1
Mus musculus [3] = test: Hypoglycemic responses resulting from oral dosing in diabetic ob/ob mice(inactive dose), po; assay type: functional
Mus musculus [4] = species on record: Mus musculus; test: Percent decrease in drug -treated plasma glucose concentration, relative to vehicle treated control diabetic ob/ob mice; assay type: functional
Mus musculus [5] = test: Hypoglycemic responses resulting from oral dosing in diabetic ob/ob mice(active dose), po; assay type: functional

| Structure (SMILES) | IC50 [1] | IC50 [2] | Dose (Mus musculus [3]) | Glucose (Mus musculus [4]) | Dose (Mus musculus [5]) |
| --- | --- | --- | --- | --- | --- |
| COC(=O)[C@H](Cc1ccccc1)NC(=O)c1cc2cc(Cl)ccc2[nH]1 | 0.14 µM | > 30 µM | 50 mg/kg | – | – |
| COc1ccc2[nH]c(C(=O)N[C@@H](Cc3ccccc3)C(=O)N(C)C)cc2c1 | 4.7 µM | – | – | – | – |
| CN(C)C(=O)[C@H](O)[C@H](CC1CCCCC1)NC(=O)c1cc2cc(Cl)ccc2[nH]1 | 6.5 µM | – | – | – | – |
| CN(C)C(=O)[C@@H](Cc1ccccc1)NC(=O)c1cc2cc(Cl)ccc2[nH]1 | 0.26 µM | 12 µM | – | – | – |
| CN(C)C(=O)[C@@H](O)[C@@H](Cc1ccccc1)NC(=O)c1cc2cc(Cl)ccc2[nH]1 | 1.8 µM | – | – | – | – |
| O=C(N[C@@H](Cc1ccccc1)C(=O)N1CCC(O)CC1)c1cc2cc(Cl)ccc2[nH]1 | 0.26 µM | 5.1 µM | 10 mg/kg | 36% | 25 mg/kg |
| O=C(N[C@@H](Cc1ccccc1)[C@@H](O)C(=O)O)c1cc2cc(Cl)ccc2[nH]1 | 0.33 µM | > 30 µM | – | – | – |
| CN(C)C(=O)[C@H](Cc1ccccc1)NC(=O)c1cc2cc(Br)ccc2[nH]1 | 0.11 µM | 1.4 µM | 50 mg/kg | – | – |
| CN(C)C(=O)[C@H](O)[C@H](Cc1ccccc1)NC(=O)c1cc2cc(Cl)ccc2[nH]1 | 0.11 µM | 1.5 µM | 15 mg/kg | 40% and 32% | 50 mg/kg and 25 mg/kg |
| CNC(=O)[C@H](O)[C@H](Cc1ccccc1)NC(=O)c1cc2cc(Cl)ccc2[nH]1 | 0.68 µM | > 30 µM | – | – | – |
| CN(C)C(=O)[C@H](Cc1ccccc1)NC(=O)c1cc2ccccc2[nH]1 | 0.4 µM | 7.8 µM | 25 mg/kg | 40% | 50 mg/kg |
| O=C(N[C@@H](Cc1ccccc1)[C@@H](O)CO)c1cc2cc(Cl)ccc2[nH]1 | 6.8 µM | – | – | – | – |
| COC(=O)[C@H](O)[C@H](Cc1ccccc1)NC(=O)c1cc2cc(Cl)ccc2[nH]1 | 0.21 µM | 13 µM | 50 mg/kg | – | – |
| NC(=O)[C@H](O)[C@H](Cc1ccccc1)NC(=O)c1cc2cc(Cl)ccc2[nH]1 | 1.7 µM | – | – | – | – |
| CN(C)C(=O)[C@H](Cc1ccccc1)NC(=O)c1cc2cc(F)ccc2[nH]1 | 0.43 µM | 2.3 µM | 50 mg/kg | – | – |
| CN(C)C(=O)[C@H](O)[C@H](Cc1ccccc1)NC(=O)c1cc2cc(Br)ccc2[nH]1 | 0.097 µM | 3.3 µM | 50 mg/kg | – | – |
| CN(C)C(=O)[C@H](Cc1ccccc1)NC(=O)c1cc2cc(Cl)ccc2[nH]1 | 0.082 µM | 1.9 µM | – | – | – |
| O=C(N[C@@H](Cc1ccccc1)C(=O)O)c1cc2cc(Cl)ccc2[nH]1 | 1.7 µM | > 30 µM | – | – | – |
| CN(C)C(=O)[C@@H](O)[C@H](Cc1ccccc1)NC(=O)c1cc2cc(Cl)ccc2[nH]1 | 8.7 µM | – | 50 mg/kg | – | – |
| O=C(N[C@H](CO)Cc1ccccc1)c1cc2cc(Cl)ccc2[nH]1 | > 10 µM | – | – | – | – |
| CN(C)C(=O)[C@H](O)[C@@H](Cc1ccccc1)NC(=O)c1cc2cc(Cl)ccc2[nH]1 | 1.7 µM | – | – | – | – |
| CNC(=O)[C@@H](Cc1ccccc1)NC(=O)c1cc2cc(Cl)ccc2[nH]1 | 0.22 µM | 12 µM | 25 mg/kg | 39% | 50 mg/kg |
| CNC(=O)[C@H](Cc1ccccc1)NC(=O)c1cc2cc(Cl)ccc2[nH]1 | 0.11 µM | 5.2 µM | 25 mg/kg | 49% | 50 mg/kg |
| CN(C)C(=O)[C@H](O)[C@H](Cc1ccccc1)NC(=O)c1cc2ccccc2[nH]1 | 0.44 µM | > 30 µM | – | – | – |
| CN(C)C(=O)[C@H](O)[C@H](Cc1ccccc1)NC(=O)c1cc2cc(F)ccc2[nH]1 | 0.17 µM | 6.2 µM | 10 mg/kg | 33% | 25 mg/kg |
| O=C(N[C@@H](Cc1ccc(F)cc1)C(=O)N1CCC(O)CC1)c1cc2cc(Cl)ccc2[nH]1 | – | 1.9 µM | 5 mg/kg | 44% and 45% and 26% and 24% | – |
